# “Also recorded” adds a separate entry of the source. No end group written: not given here.
# Experiments:
# [1] = tested on: TLR9 signaling; assay: ODN 1668-induced cytokine secretion in BMDM supernatants (ELISA); type: cell-based, mouse; conditions: 5 hour supernatants, ODN 1668 1 μM
# Experimental: (§1) Mouse TNFα and IL-12-p40 concentrations were measured in supernatants using ELISA kits from Biolegend™, Inc.
# BMDMs were incubated in the presence of a decoy peptide for 30 minutes prior to stimulation with ODN 1668 (1 μM). The statistical significance of changes in cytokine levels was determined by the one-way ANOVA test; *p<0.01.
# [2] = Stability and solubility of peptide solutions
# [3] = tested on: TLR7 signaling; assay: TNFα mRNA in BMDM stimulated with R848; type: cell-based, mouse; conditions: peptide 40 μM; R848 2.85 μM; 1 h
# Experimental: (§2) The cDNA obtained was amplified with gene-specific primers for mouse HPRT, TNFα, IL-10, IL-12-p40, or IL-6 and Fast SYBR Green™ master mix (Applied Biosystemsm) as previously described.
# (§3) CPDPs 9R34 and 9R11 were examined for inhibition of TLR1/2, TLR4, and TLR7 signaling. BMDMs were stimulated with Pam3C, E. coli LPS, or R848 and TNFαmRNA was measured 1 hour after stimulation. Mouse BMDM were treated with 40 μM of the indicated peptides for 30 minutes prior to stimulation with ODN 1668 (1 μM), E. coli LPS (0.1 μg/mL), R848 (2.85 μM), or P3C (0.33 μM). R848 and P3C were used to specifically activate TLR7 and TLR2 signaling, respectively. TNFαmRNA expression was measured 1 h after ODN 1668 challenge and normalized to the expression of HPRT. See results in FIG. 8A, FIG. 8B, and FIG. 8C. […] The statistical significance of changes was determined by a one-way ANOVA test; *p<0.01.
# [4] = tested on: myDDosome; conditions: BMDM pretreated with CPDP; MyD88 IP, IRAK4 blot
# Experimental: Four million BMDMs per well were plated in 6-well plates and treated with CPDP for 30 minutes prior to stimulation with ODN 1668 for 90 minutes. Cells were lysed in 600 p L of buffer containing 20 mM HEPES (pH 7.4), 150 mM NaCl, 10 mM NaF, 2 mM Na3VO4, 1 mM EDTA, 1 mM EGTA, 0.5% Triton X-100, 0.1 mM DTT, and protease inhibitor cocktail (Roche™). Cell extracts were incubated overnight with 1 μg of anti-mouse MyD88 antibody (AF3109) (R&D Systems™, followed by a 4-hour incubation with 20 μL protein G Sepharose beads (ThermoFisherm Scientific). The beads were then washed 3 times with 500 μL of lysis buffer and boiled in 60 μL of Laemmli sample buffer (Bio-Rad™). Cell extracts were electrophoresed on 10% acrylamide gel by SDS-PAGE and transferred to PVDF membrane (Bio-Rad™). Rabbit anti-MyD88 IgG was purchased from Cell Signaling™. Mouse anti-IRAK4 IgG was obtained from Abcam™. Alkaline phosphatase-conjugated secondary antibodies against mouse and rabbit IgG were purchased from Cell Signaling™. The stabilized substrate for alkaline phosphatase was from Promega™.
# TLR stimulation causes formation of myDDosome, a signaling complex composed through interactions of IRAK and MyD88 death domains. To test if peptides inhibit myDDosome formation, MyD88 was immunoprecipitated from lysates of ODN-stimulated BMDM and the precipitates analyzed for IRAK4 presence. BMDM were lysed and lysates immunoprecipitated with anti-MyD88 Ab and immune complexes assessed with anti-IRAK4 Ab 3 hours after cell treatment with ODN 1668.
# [5] = tested on: TLR9-induced lethality; assay: Survival of D-Gal pretreated mice after ODN 1668; type: in vivo, C57Bl/6J mice; conditions: ODN 1668 lower dose 3.93 nmol/mouse; peptide 200 nmol/mouse i.p.
# Experimental: Systemic cytokine levels were measured in plasma samples obtained 1, 3, and 5 hours after intraperitoneal (i.p.) administration of 7.86 nmol (50 μg) of ODN 1668 or 67 nmol of Pam3C per mouse, using ELISA kits from Biolegend™ Inc. CPDP were dissolved in PBS and administered i.p. at the dose of 200 nmol per mouse 1 hour before administration of a TLR agonist. For survival experiments, mice were sensitized to TLR9 agonists by i.p. injection of 20 mg of D-Gal 30 minutes before administration of peptides or PBS. ODN 1668 was used at the doses of 3.93 or 7.86 nmol/mouse (25 or 50 μg/mouse) 1.5 hours after D-Gal. Animal survival was monitored for 50 hours. All agents were administered i.p. in 500 μL volume of PBS. Animals had free access to food and water during the observation period. All animal experiments were conducted in accordance with the national guidelines for the care and use of laboratory animals under a protocol that was approved by the UMB IACUC.
# With the exception for LPS, administration of a purified TLR agonist is not lethal to mice. Mice, however, can be sensitized to TLR agonists by pretreatment with D-galactosamine (D-Gal). Survival of C57Bl/6J mice pretreated with D-galactosamine and challenged with different doses of ODN 1668 was tested. Mice were first administered with D-Gal intraperitoneally at the dose of 20 mg/mouse. Thirty minutes later mice were mock-treated with PBS or treated with a CPDP at the dose 200 nmol/mouse. ODN 1668 was administered 1 hour after peptide treatment at the dose of 3.93 or 7.86 nmol/mouse.
# [6] = tested on: TLR9 signaling; assay: TNFα mRNA in BMDM at varying ODN 1668 concentration, comparison with INH-18; type: cell-based, mouse; conditions: inhibitor 30 min before varying ODN 1668, 1 hour
# Experimental: To investigate inhibition of TLR9 signaling by 9R34 further, the following work was conducted. Mouse BMDMs were treated with the effective dose of either INH-18 (an ODN-based, competitive inhibitor of TLR9, commercially available through Invivogen™) or 9R34, 30 minutes prior to stimulation with varying concentration of ODN 1668. TNFα mRNA expression was measured 1 hour after ODN 1668 challenge and normalized to the expression of HPRT.
# [7] = tested on: TLR1/2 signaling; assay: TNFα mRNA in BMDM stimulated with Pam3C; type: cell-based, mouse; conditions: peptide 40 μM; P3C 0.33 μM; 1 h
# Experimental: as §2, §3
# [8] = tested on: TLR4 signaling; assay: LPS-induced TNFα secretion in BMDM (ELISA); type: cell-based, mouse; conditions: peptide 20 or 40 μM; E. coli LPS 0.1 μg/mL; 5 hour BMDM supernatants
# Experimental: as §1
# BMDM were treated with 20 or 40 μM of 9R34 for 30 minutes prior to stimulation with E. coli LPS (0.1 μg/mL). TNFαconcentration in supernatants was evaluated by ELISA 5 hours after cell stimulation. See results in FIG. 9. Data represent means±SEM of three independent experiments.
# [9] = tested on: TLR9 signaling; assay: ODN 1668-induced cytokine mRNA expression in BMDM (quantitative real time PCR); type: cell-based, mouse
# Experimental: as §2
# Mouse BMDMs were incubated in the presence of a 10, 20 or 40 μM decoy peptide for 30 minutes prior to stimulation with ODN 1668 (1 μM). […] Data represent the means±SEM of at least three independent experiments. The statistical significance of changes in cytokine mRNA was determined by a one-way ANOVA test; *p<0.001. Peptides 9R3 and 9R34 have overlapping sequences (see Table 1).
# To investigate inhibition of TLR9 signaling by 9R34 analogues, the following work was performed. Mouse BMDMs were incubated in the presence of a 10, 20 or 40 μM decoy peptide for 30 minutes prior to stimulation with ODN 1668 (1 μM). Cytokine mRNA expression was measured 1 hour after ODN 1668 challenge and normalized to the expression of HPRT. See also Table 1. Data represent means±SEM of at least three independent experiments.
# [10] = BMDM, peptide 10, 20 or 40 μM 30 min before ODN 1668 (1 μM), 1 hour, normalized to HPRT
sequence,measurement,setting,value
"GRWALRLCLEERD (also: antennapedia vector attached) [Peptide 9R34, tested as CPDP with antennapedia vector]",secretion of IL-12-p40,[1]; peptide 20 μM,also effective
same,production/secretion of TNFα,[1]; peptide 40 μM,decreased the production of TNFα
same,secretion of IL-12-p40,[1]; peptide 40 μM,reduced secretion
same,stability of millimolar stock solutions,[2],unstable
same,stability of peptide solutions in the presence of high protein concentrations,[2],also unstable
same,signaling induced by TLR7 agonist (TNFα mRNA),[3],did not inhibit
same,ODN 1668-induced myDDosome formation,[4],prevented ODN 1668-induced myDDosome formation
same,protection of D-Gal pretreated mice (survival),[5],full protection
same,TNFα/HPRT mRNA expression ratio with increased concentrations of agonistic ODN,[6],efficient inhibition in a wider range of agonist concentrations
same,signaling induced by TLR1/2 agonist (TNFα mRNA),[7],did not inhibit
same,LPS-induced TNFα secretion,[8],did not reduce
same,TNFα mRNA expression,"[9]; BMDM, peptide 10, 20 or 40 μM 30 min before ODN 1668 (1 μM), 1 hour after stimulation, normalized to HPRT",significantly suppressed
same,IL-10 mRNA expression,[9]; [10],significantly suppressed
same,IL-12-p40 mRNA expression,[9]; [10],significantly suppressed
same,"inhibition of TLR9 signaling (ODN 1668-induced cytokine mRNA, overall)","[9]; BMDM, peptide 10, 20 or 40 μM, ODN 1668 1 μM",most potent inhibitor; also recorded: inhibit TLR9 signaling; also recorded: inhibited TLR9 signaling more potently than 9R3
same,expression of all tested cytokines at lower peptide concentrations,[9]; peptide 10 or 20 μM,inhibited expression of all tested cytokines

# Source: patent US12084521B2, “TLR9 inhibitors to suppress inflammatory response to pathogens” (University Of Maryland, Baltimore, priority 2018, dated 2024)
